Where a name gives a salt, the structure may show the parent alone.

Series [1] in a line: acute toxicity, intraperitoneal (lethal doses). In kind it is in vivo, mouse. The conditions noted are these: mouse, in vivo, ip; male mice. The protocol: (§1) By intraperitoneal administration to male mice, the LD-30 (lethal dose for 30% of the animals tested) is of the order of 128 mg/kg and the LD-50 is of the order of about 200 mg/kg.
The subject of a further series is male mice. Nature of the series: acute toxicity, intraperitoneal (lethal doses). The class given is in vivo, mouse. As to conditions: i.p. On the procedure: as §1
Series [2] deals with mice. Nature of the series: overall behavior and reactivities in mice. In kind it is in vivo, mouse. As to conditions: mice, i.p.; dose not stated. The protocol: (§2) Groups of three animals are observed before and then 0.25 hour, 0.50 hour, 1 hour, 2 hours, 3 hours and 24 hours after the administration of CRL 41 224.
The test system of series [3] is rats. As to the kind of experiment: overall behavior and reactivities in rats. In kind it is in vivo, rat. The conditions noted are these: i.p., dose not stated. On the procedure: as §2
The subject of series [4] is mice. Nature of the series: interaction with apomorphine in mice. In kind it is in vivo, mouse. As to conditions: i.p.; dose not stated. The protocol:
Groups of 6 mice receive CRL 41 224 0.5 hour before the subcutaneous injection of 1 or 16 mg/kg of apomorphine.

Series [5] relates to rats. As to the kind of experiment: interaction with apomorphine in rats. In kind it is in vivo, rat. The conditions noted are these: i.p., dose not stated. On the procedure: CRL 41 224 is administered to groups of 6 rats 0.5 hour before the subcutaneous injection of 0.5 mg/kg of apomorphine.
Series [6] has as its system rats. As to the kind of experiment: interaction with amphetamine. The conditions noted are these: rats, i.p.; dose not stated. In kind it is in vivo, rat. The protocol:
Amphetamine (2 mg/kg) is injected intraperitoneally into groups of 6 rats 30 minutes after the administration of CRL 41 224.

Series [7] relates to mice. Nature of the series: interaction with reserpine. The class given is in vivo, mouse. The conditions noted are these: i.p.; dose not stated. On the procedure:
Four hours after the intraperitoneal injection of 2.5 mg/kg of reserpine, groups of 6 mice receive CRL 41 224.

The test system of series [8] is mice. As to the kind of experiment: interaction with oxotremorine. In kind it is in vivo, mouse. The conditions noted are these: i.p.; dose not stated. On the procedure:
CRL 41 224 is administered to groups of 6 mice 0.5 hour before the intraperitoneal injection of 0.5 mg/kg of oxotremorine.

For series [9], the system named is mice. Nature of the series: four plate test, traction and electric shock. As to conditions: i.p., dose not stated. In kind it is in vivo, mouse. The protocol: The test is performed on groups of 10 mice 30 minutes after the administration of CRL 41 224.
Series [10] relates to mice. As to the kind of experiment: action on the spontaneous motility (actimeter). The class given is in vivo, mouse. The conditions noted are these: mice, i.p.; dose not stated. On the procedure: 0.5 hour after they have received CRL 41 224, the mice (6 per dose, 12 control animals) are placed in an actimeter, where their motility is recorded for 30 minutes.
In series [11] the test system is mice. As to the kind of experiment: motility reduced by habituation to the enclosure. As to conditions: i.p., dose not stated. The class given is in vivo, mouse. On the procedure: After they have stayed in the actimeters for 18 hours, the mice (6 per dose, 12 control animals) receive CRL 41 224. They are immediately returned to their respective enclosures and, half an hour later, their motility is recorded for 30 minutes.

The test system of series [12] is mice. As to the kind of experiment: motility reduced by hypoxic aggression. The class given is in vivo, mouse. As to conditions: i.p., dose not stated. On the procedure: Half an hour after they have received CRL 41 224, the mice (10 per dose, 20 control animals) are subjected to acute hypobaric anoxia [pressure reduction of 600 mm Hg (i.e. about 8×10^4 Pa) in 90 seconds; release of vacuum in 45 seconds] and are then placed in an actimeter, where their motility is recorded for 10 minutes.

In series [13] the test system is mice. As to the kind of experiment: asphyxiant anoxia (gallamine triiodoethylate). The class given is in vivo, mouse. As to conditions: i.p.; dose not stated. The protocol:
Groups of 10 mice receive CRL 41 224 half an hour before the intraperitoneal administration of 32 mg/kg of gallamine triiodoethylate (reference curarizing agent).

Series [14] concerns mice. As to the kind of experiment: interaction with barbital. In kind it is in vivo, mouse. As to conditions: i.p.; dose not stated. On the procedure:
Half an hour after the administration of CRL 41 224, groups of 10 mice receive an intraperitoneal injection of barbital (220 mg/kg).

The subject of series [15] is mice. As to the kind of experiment: action on the behavioral despair. The conditions noted are these: i.p., dose not stated. The class given is in vivo, mouse. The text has this:
Half an hour after they have received CRL 41 224, groups of 6 mice are placed in a beaker filled with water to a height of 6 cm. The total period of immobility between the 2nd and 6th minutes following immersion is noted.

Another series relates to CNS. As to the kind of experiment: overall neuropsychopharmacological (CNS) profile. The class given is in vivo, mouse; rat. The conditions noted are these: i.p., mice and rats; dose not stated. On the procedure: The neuropsychopharmacological study of CRL 41 219 was carried out as indicated above for CRL 41 224.
The neuropsychopharmacological study of CRL 41 220 was carried out in accordance with the procedures given above for CRL 41 224.

For series [16], the system named is peripheral α-adrenergic stimulation. As to the kind of experiment: signs of peripheral adrenergic stimulation. In kind it is in vivo, mouse; rat. As to conditions: i.p.; dose not stated. On the procedure: as §2

For the compound `CC(=O)Nc1ccc(C(=O)C(C)N2CCCC2)cc1Cl` (stereo not drawn) [CRL 41 219, 1-(4-acetylamino-3-chlorophenyl)-2-pyrrolidinopropanone hydrochloride], in [1], the median lethal dose (LD50) is roughly 200 mg/kg. In addition, the LD-30 in the series on male mice is recorded as roughly 128 mg/kg. In the series with mice [2], the excitation in mice entry is given as “excitation with hyperreactivity” and the “stereotype movements in mice” value is recorded as “late appearance of stereotypies”. Also, in the series with rats [3], the excitation in rats result is “excitation (with hyperractivity)” and the “stereotype movements in rats” value is reported as “presence of stereotype movements”. The “hypothermia induced by apomorphine” value in the series with mice [4] was “antagonism of the hypothermia induced by apomorphine”. In the series on rats [5], the “stereotypies induced by apomorphine” value was “potentiation of the stereotypies induced by apomorphine”. Further, the “stereotypies induced by amphetamine” value in the series on rats [6] is “potentiation of the stereotypies induced by apomorphine and amphetamine”. Also, in the series with mice [7], the “hypothermia induced by reserpine” value is reported as “antagonism of the hypothermia induced by apomorphine, reserpine” and the “ptosis induced by reserpine” value is listed as “antagonism of the ptosis induced by reserpine”. Also, in the series on mice [8], the “hypothermia induced by oxotremorine” value was “antagonism of the hypothermia induced by apomorphine, reserpine and oxotremorine”; the “trembling caused by oxotremorine” value was “antagonism of the trembling caused by oxotremorine”. In addition, in the series with mice [9], the “lethal effects of electric shock” value is on record as “aggravation of the lethal effects of electric shock”. Moreover, in the series on mice [9] (mice), the “number of punished passes in the 4 plate test” value is “increase in the number of punished passes”. Further, the “spontaneous motility / motor activity” value in the series on mice [10] was “hyperactivity, increase in the spontaneous motor activity”. Also, in the series with mice [11], the “motor activity after habituation to the enclosure” value was “resumption in the motor activity after habituation to the enclosure”. Besides, the “motor recovery after hypoxic aggression” value in the series on mice [12] is given as “improvement in the motor recovery after hypoxic aggression”. In the series with mice [13], the “time taken for convulsions and death to occur following asphyxiant anoxia” value was “reduction in the time taken for convulsions and death to occur following asphyxiant anoxia”. Also, the “sleep induced by barbital” value with mice [14] is reported as “antagonism of the sleep induced by barbital”. In addition, the “period of immobility or "despair"” value with mice [15] is “reduction in the immobility”. The “overall action on the CNS” value in the series with CNS was “antidepressant, stimulant and arousing properties”. Also, in [16], the mydriasis result was “mydriasis” and the “peripheral adrenergic stimulation, overall” value is “effects reflecting peripheral α-adrenergic stimulation”.

What is called LD50 is the dose at which mortality reaches 50%. Lower therefore signals greater toxicity.

These data come from patent publication US4963570A, “1-(acetylaminophenyl)-2-aminopropanone derivatives and pharmaceutical compositions thereof” (Laboratoire L. Lafon, priority 1983, dated 1990).
